Data as given in the supplement of paper PMC10307832.

What was measured:
Assay in all cases: relative viability (nuclei count vs DMSO), 5 days (fraction); higher = more cells survive
[1] = compound: CN1C=C(C2=CC=CC=C21)/C=C\3/C4=C(C=CC=N4)NC3=O + Cc1nc(Nc2ncc(C(=O)Nc3c(C)cccc3Cl)s2)cc(N2CCN(CCO)CC2)n1 [Dasatinib] (partner 0.075 µM)
How it was run: (§1)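 A single step with final 0.05% Triton X-100, 1% formaldehyde and 1 ug/ml Hoechst fixed the cells and stained nuclei 5 days after treatment. Lung cancer cell lines in 1536-well plates had been treated by pin tool the day after seeding with one drug alone or a fixed anchor-drug dose plus five library-drug doses (not always all listed) in √10 steps, and nuclei were counted on 4× images. Relative viability is the ratio of nuclei in treated wells to nuclei in vehicle wells, taken as the median of duplicate plates.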

[2] = compound: CC(=O)Nc1cccc(-n2c(=O)n(C3CC3)c(=O)c3c(Nc4ccc(I)cc4F)n(C)c(=O)c(C)c32)c1 [Trametinib] + NC(=O)Nc1cc(-c2cccc(F)c2)sc1C(=O)N[C@H]1CCCNC1 [AZD7762] (partner 0.2 µM)
How it was run: as §1

[3] = compound: CC(=O)Nc1cccc(-n2c(=O)n(C3CC3)c(=O)c3c(Nc4ccc(I)cc4F)n(C)c(=O)c(C)c32)c1 [Trametinib] + COc1cc2c(Oc3ccc(NC(=O)C4(C(=O)Nc5ccc(F)cc5)CC4)cc3F)ccnc2cc1OCCCN1CCOCC1 [Foretinib] (partner 0.25 µM)
How it was run: as §1

[4] = compound: CN1C=C(C2=CC=CC=C21)/C=C\3/C4=C(C=CC=N4)NC3=O + O=C(CCCCCCC(=O)Nc1ccccc1)NO [Vorinostat] (partner 1 µM)
How it was run: as §1

Cell Line | relative viability ([1]; first compound 0.06325 µM) | relative viability ([1]; first compound 0.2 µM) | relative viability ([1]; first compound 0.6325 µM) | relative viability ([1]; first compound 2 µM) | relative viability ([2]; first compound 0.0025 µM) | relative viability ([2]; first compound 0.007906 µM) | relative viability ([2]; first compound 0.025 µM) | relative viability ([2]; first compound 0.07906 µM) | relative viability ([2]; first compound 0.25 µM) | relative viability ([3]; first compound 0.0025 µM) | relative viability ([3]; first compound 0.007906 µM) | relative viability ([3]; first compound 0.025 µM) | relative viability ([3]; first compound 0.07906 µM) | relative viability ([3]; first compound 0.25 µM) | relative viability ([4]; first compound 0.02 µM) | relative viability ([4]; first compound 0.06325 µM) | relative viability ([4]; first compound 0.2 µM) | relative viability ([4]; first compound 0.6325 µM) | relative viability ([4]; first compound 2 µM) | relative viability ([1]; first compound 0.02 µM)
NCI-H2347 | 0.296 | 0.222 | 0.302 | 0.938 | 0.642 | 0.41 | 0.296 | 0.29 | 0.296 | 1.08 | 0.43 | 0.31 | 0.46 | 0.387 | 0.585 | 0.659 | 0.582 | 0.493 | 0.517 | 
NCI-H1651 | 0.534 | 0.353 | 0.464 | 0.345 | 0.454 | 0.427 | 0.352 | 0.439 | 0.186 | 0.773 | 0.687 | 0.702 | 0.652 | 0.671 | 0.656 | 0.573 | 0.571 | 0.563 | 0.537 | 0.522
H3255 | 0.349 | 0.323 | 0.324 | 0.322 | 0.805 | 0.736 | 0.8 | 0.733 | 0.505 | 0.794 | 0.857 | 0.501 | 0.728 | 0.509 | 1.03 |  | 0.876 | 0.749 | 0.774 | 0.438
Calu-6 |  |  |  |  |  |  |  |  |  | 0.835 | 0.503 | 0.418 | 0.12 | 0.131 |  |  |  |  |  | 
SW 900 | 0.585 |  | 0.537 | 0.481 | 0.666 | 0.518 | 0.575 | 0.47 | 0.268 | 0.79 | 0.669 | 0.708 | 0.698 | 0.499 | 0.588 |  |  | 0.352 | 0.463 | 0.495
NCI-H2228 | 0.458 |  |  | 0.485 |  |  |  |  |  | 0.911 | 0.761 | 0.811 | 0.571 | 0.4 | 0.85 | 0.646 | 0.503 | 0.704 | 0.508 | 0.524
NCI-H1650 | 0.296 | 0.26 | 0.263 | 0.277 |  |  |  |  |  | 1.18 | 0.857 | 0.894 | 0.838 | 0.506 | 0.548 | 0.532 | 0.566 | 0.549 | 0.554 | 0.262
NCI-H522 | 0.803 | 0.844 | 0.784 | 0.874 | 0.875 | 1.01 | 0.703 | 0.69 | 0.88 |  |  |  |  |  | 0.734 | 0.893 | 0.84 | 0.899 | 0.953 | 0.896
EBC-1 |  |  |  |  |  |  |  |  |  | 0.101 | 0.0972 | 0.0957 | 0.0946 | 0.0905 |  |  |  |  |  | 
IA-LM |  |  |  |  |  |  |  |  |  | 1.09 | 0.687 | 0.351 | 0.169 | 0.0888 | 1.07 | 1.2 | 1.04 |  | 0.927 | 
COR-L 105 | 0.298 | 0.273 | 0.34 | 0.367 |  |  |  |  |  | 0.815 | 1.19 | 0.489 | 0.552 | 0.374 | 0.845 | 0.682 | 0.774 | 0.793 | 0.768 | 0.306
NCI-H1703 |  |  |  |  | 0.141 | 0.126 | 0.144 | 0.101 | 0.112 | 0.371 | 0.315 | 0.357 | 0.368 | 0.323 |  |  |  |  |  | 
NCI-H2023 | 0.566 | 0.349 | 0.458 | 0.381 |  |  |  |  |  | 0.795 | 0.472 | 0.497 | 0.35 | 0.302 | 0.697 | 0.562 |  | 0.56 | 0.502 | 0.638
A549 |  |  |  |  |  |  |  |  |  | 0.817 | 0.594 | 0.534 | 0.178 | 0.0763 |  |  |  |  |  | 
HCC-44 |  |  |  |  | 0.958 | 1.07 | 1.2 | 1.31 | 1.05 |  |  |  |  |  | 1.03 | 1.09 | 1.1 | 1.12 | 1.02 | 
NCI-H1623 | 0.625 | 0.49 | 0.457 | 0.505 |  |  |  |  |  | 0.782 | 0.591 | 0.532 | 0.437 | 0.727 |  |  |  |  |  | 0.469
SK-LU-1 | 0.129 | 0.175 | 0.191 | 0.154 |  |  |  |  |  | 0.649 | 0.697 | 0.505 | 0.406 | 0.208 | 0.67 | 0.764 | 0.729 | 0.727 | 0.831 | 0.118
NCI-H1563 | 0.437 | 0.444 | 0.488 | 0.414 |  |  |  |  |  | 0.953 | 0.815 | 0.807 | 0.804 | 0.694 |  |  |  |  |  | 0.472
COR-L23 | 0.449 | 0.494 | 0.51 | 0.529 |  |  |  |  |  | 1.05 | 1.04 | 0.953 | 0.777 | 0.45 | 0.452 | 0.433 | 0.42 | 0.479 | 0.396 | 0.551
NCI-H1792 | 0.93 | 0.74 |  | 0.66 | 0.682 | 0.552 | 0.24 | 0.26 | 0.133 |  |  |  |  |  |  |  |  |  |  | 0.816
NCI-H2009 | 0.295 | 0.261 | 0.333 | 0.315 |  |  |  |  |  | 1.05 | 0.708 | 0.351 | 0.279 | 0.302 | 0.69 | 0.671 | 0.748 | 0.766 | 0.683 | 0.265
